According to patent US20250262169A1, “METHODS OF TREATING COENZYME Q10 DEFICIENCY” (BPGbio, Inc., priority 2024, published 2025):

How the values were obtained:
[1] = cited from earlier work
[2] = cited from earlier work; remark: listed apart in the source
[3] = test system: SH-SY5Y cell line; details: cited from earlier work
[4] = rats, oral; cited from earlier work
[5] = target: T1, COQ2 (Homo sapiens, UniProt Q96H96); details: HL-60 cells; cited from earlier work
T1 construct: host or cells: HL-60 cells (endogenous enzyme)
T1 sequence (Q96H96 35-371): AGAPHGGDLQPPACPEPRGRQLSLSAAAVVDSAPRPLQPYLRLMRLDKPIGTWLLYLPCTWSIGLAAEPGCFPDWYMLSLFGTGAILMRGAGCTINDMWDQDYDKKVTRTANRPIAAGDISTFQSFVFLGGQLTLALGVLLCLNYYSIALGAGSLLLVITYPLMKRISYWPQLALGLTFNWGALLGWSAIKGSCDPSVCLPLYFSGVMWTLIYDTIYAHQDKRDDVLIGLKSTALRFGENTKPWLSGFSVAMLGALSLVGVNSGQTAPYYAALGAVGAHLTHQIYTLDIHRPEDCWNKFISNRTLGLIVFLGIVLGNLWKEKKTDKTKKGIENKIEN

[6] = test system: SH-SY5Y cells; test: Oxidized CoQ10 levels in PABA-induced CoQ10 deficient neuronal cells; assay type: cell-based; details: 1 mM PABA for 5 days
From the text: An established model of CoQ10 deficiency was used to study the effects of BPM31510 in vitro. […] A neuronal cell model of CoQ10 deficiency by treatment of the neuronal SH-SY5Y cell line with PABA has previously been established. In this model, a significant reduction of cellular ATP production and increase in mitochondrial reactive oxygen species (ROS) was observed. […] Therefore, this PABA-induced CoQ10 deficient in vitro model was used to evaluate the potency of BPM31510 to restore ATP levels and reduce mitochondrial ROS.
SH-SY5Y cells were pretreated for 5 days with 1 mM PABA or vehicle in all experiments.

[7] = young rats, after four days of dosing
[8] = CoQ10 supplementation 2.5 μM and 5 μM

Structure (SMILES) | concentration of CoQ10 in brain ([1]; 1-2 month old animals, oral administration) | CoQ10 in cerebral tissues ([1]; 12 month old and 24 month old rats, oxidized and reduced forms) | concentration in heart or kidney [1, 7] | plasma, liver, and spleen concentrations [1, 7] | solubility in water [2] | electron transport chain (ETC) activities [3, 8] | mitochondrial oxidative stress [3, 8] | exogenous CoQ10 required to restore ETC activities ([3]; PABA treated SH-SY5Y) | correction of ATP and ROS levels ([3]; higher concentrations (>10 μM), reports in literature) | orally-administered CoQ10 absorbed [4] | COQ2 activity [5] | reduction of oxidized CoQ10 levels [6]
COC1=C(OC)C(=O)C(C/C=C(\C)CC/C=C(\C)CC/C=C(\C)CC/C=C(\C)CC/C=C(\C)CC/C=C(\C)CC/C=C(\C)CC/C=C(\C)CC/C=C(\C)CCC=C(C)C)=C(C)C1=O [CoQ10, Coenzyme Q10] | did not increase | accumulation of CoQ10 in cerebral tissues | no increase | increased | insoluble in water | unable to fully restore | effective at significantly reducing | > 10 µM | not complete | 2-3% | – | –
Nc1ccc(C(=O)O)cc1 [PABA, Para-aminobenzoic acid] | – | – | – | – | – | – | – | – | – | – | inhibit COQ2 activity | approximately 90%
